# Measurements taken from ChEMBL document CHEMBL3734705, “Synthesis and in vitro cytotoxicity of novel C-12 substituted-14-deoxy-andrographolide derivatives as potent anti-cancer agents” (2015).
# Active and inactive are the calls of the source. The calls are words filed in the database; no cut-off is given here.
# Columns and labels:
# Format in all cases: functional
# [1] = Cytotoxicity against human HCC2998 cells after 48 hrs by SRB assay; conditions: HCC 2998, 48 h
# [2] = Cytotoxicity against human SW620 cells after 48 hrs by SRB assay; conditions: SW-620, 48 h
# Hs-578T = experiment: Cytotoxicity against human Hs578T cells assessed as growth inhibition at 10 uM after 48 hrs by SRB assay
# [3] = Cytotoxicity against human Caki1 cells after 48 hrs by SRB assay; conditions: CAKI-1, 48 h
# SK-OV-3 = experiment: Cytotoxicity against human SKOV3 cells assessed as growth inhibition at 10 uM after 48 hrs by SRB assay
# [4] = Cytotoxicity against human HCT15 cells after 48 hrs by SRB assay; conditions: HCT-15, 48 h
# Malme-3M = experiment: Cytotoxicity against human MALME-3M cells after 48 hrs by SRB assay
# [5] = Cytotoxicity against human DU145 cells after 48 hrs by SRB assay; conditions: DU-145, 48 h
# 786-0 = experiment: Cytotoxicity against human 786-0 cells after 48 hrs by SRB assay; conditions: 786-0, 48 h
# EKVX = experiment: Cytotoxicity against human EKVX cells after 48 hrs by SRB assay
# SN12C = experiment: Cytotoxicity against human SN12C cells after 48 hrs by SRB assay
# [6] = Cytotoxicity against human SKOV3 cells after 48 hrs by SRB assay; conditions: SK-OV-3, 48 h; for CC50: read-out: LC50 (the source's name)
# M14 = experiment: Cytotoxicity against human M14 cells after 48 hrs by SRB assay; conditions: M14, 48 h
# ACHN = experiment: Cytotoxicity against human ACHN cells after 48 hrs by SRB assay
# IGROV-1 = experiment: Cytotoxicity against human IGROV1 cells assessed as growth inhibition at 10 uM after 48 hrs by SRB assay
# [7] = Cytotoxicity against human SF539 cells after 48 hrs by SRB assay; conditions: SF-539, 48 h
# NCI-H23 = experiment: Cytotoxicity against human NCI-H23 cells after 48 hrs by SRB assay; conditions: NCI-H23, 48 h
# [8] = Cytotoxicity against human OVCAR8 cells after 48 hrs by SRB assay; conditions: OVCAR-8, 48 h
# [9] = Cytotoxicity against human OVCAR5 cells after 48 hrs by SRB assay; conditions: OVCAR-5, 48 h
# RXF 393 = experiment: Cytotoxicity against human RXF393 cells assessed as growth inhibition at 10 uM after 48 hrs by SRB assay
# HOP-92 = experiment: Cytotoxicity against human HOP92 cells assessed as growth inhibition at 10 uM after 48 hrs by SRB assay
# SF-295 = experiment: Cytotoxicity against human SF295 cells assessed as growth inhibition at 10 uM after 48 hrs by SRB assay
# HCC 2998 = experiment: Cytotoxicity against human HCC2998 cells assessed as growth inhibition at 10 uM after 48 hrs by SRB assay
# HL-60(TB) = experiment: Cytotoxicity against human HL-60(TB) cells assessed as growth inhibition at 10 uM after 48 hrs by SRB assay
structure (smiles),measurement,setting,value
C=C1CC[C@@H]2[C@](C)(COC(C)=O)[C@H](OC(C)=O)CC[C@@]2(C)[C@@H]1C/C=C1/C(=O)OC[C@H]1OC(C)=O,GI50,[1],12.2 µM
same,LC50,[1],61.2 µM
same,TGI,[1],27.3 µM
same,GI50,[2],2.29 µM
same,LC50,[2],41.1 µM
same,TGI,[2],5.85 µM
same,growth inhibition (GI),Hs-578T,inactive
same,GI50,[3],6.67 µM
same,LC50,[3],44.3 µM
same,TGI,[3],19.6 µM
same,growth inhibition (GI),SK-OV-3,inactive
same,GI50,[4],1.58 µM
same,LC50,[4],65.5 µM
same,TGI,[4],4.33 µM
same,GI50,Malme-3M,2.97 µM
same,LC50,Malme-3M,29.9 µM
same,TGI,Malme-3M,7.95 µM
same,GI50,[5],4.47 µM
same,LC50 (concentration killing 50% of cells),[5],38.4 µM
same,TGI,[5],14.7 µM
same,GI50,786-0,2.02 µM
same,LC50,786-0,9.29 µM
same,TGI,786-0,4.34 µM
same,GI50,EKVX,12.9 µM
same,LC50,EKVX,50.9 µM
same,TGI,EKVX,25.6 µM
same,GI50,SN12C,3.07 µM
same,LC50 (concentration killing 50% of cells),SN12C,72 µM
same,TGI,SN12C,13.3 µM
same,GI50,[6],19.1 µM
same,TGI,[6],36.3 µM
same,CC50,[6],68.8 µM
same,GI50,M14,2.22 µM
same,LC50,M14,26.5 µM
same,TGI,M14,6.48 µM
same,GI50,ACHN,1.71 µM
same,LC50,ACHN,6.06 µM
same,TGI,ACHN,3.22 µM
same,growth inhibition (GI),IGROV-1,inactive
same,GI50,[7],1.7 µM
same,LC50,[7],6.08 µM
same,TGI,[7],3.22 µM
same,GI50,NCI-H23,6.22 µM
same,LC50,NCI-H23,66.9 µM
same,TGI,NCI-H23,23 µM
same,GI50,[8],3.38 µM
same,LC50,[8],> 100 µM
same,TGI,[8],22 µM
same,GI50,[9],1.93 µM
same,LC50 (concentration causing 50% net cell kill),[9],7.97 µM
same,TGI,[9],3.92 µM
C=C1CC[C@@H]2[C@](C)(COC(C)=O)[C@H](OC(C)=O)CC[C@@]2(C)[C@@H]1CC(Nc1ccc(S(=O)(=O)NC(C)=O)cc1)C1=CCOC1=O (mixture of isomers),GI50,[1],7.51 µM
same,LC50,[1],40.1 µM
same,TGI,[1],17.3 µM
same,GI50,[2],1.61 µM
same,LC50,[2],9.63 µM
same,TGI,[2],3.58 µM
same,GI50,[3],3.31 µM
same,LC50,[3],29 µM
same,TGI,[3],11.2 µM
same,GI50,[4],1.53 µM
same,LC50,[4],38 µM
same,TGI,[4],4.36 µM
same,GI50,[5],2.8 µM
same,LC50 (concentration killing 50% of cells),[5],27 µM
same,TGI,[5],9.74 µM
same,GI50,786-0,2.44 µM
same,LC50,786-0,26.2 µM
same,TGI,786-0,7.98 µM
same,GI50,EKVX,10.8 µM
same,LC50,EKVX,40.3 µM
same,TGI,EKVX,20.9 µM
same,GI50,SN12C,1.78 µM
same,LC50 (concentration killing 50% of cells),SN12C,39.2 µM
same,TGI,SN12C,5.4 µM
same,GI50,[6],9.31 µM
same,TGI,[6],18.7 µM
same,CC50,[6],37.4 µM
same,GI50,M14,2.86 µM
same,LC50,M14,45.8 µM
same,TGI,M14,11.9 µM
same,GI50,ACHN,7.54 µM
same,LC50,ACHN,36.3 µM
same,TGI,ACHN,16.5 µM
same,GI50,[7],2.39 µM
same,LC50,[7],26.9 µM
same,TGI,[7],7.77 µM
same,GI50,NCI-H23,5.52 µM
same,LC50,NCI-H23,46.4 µM
same,TGI,NCI-H23,17.4 µM
same,GI50,[8],2.25 µM
same,LC50,[8],38.6 µM
same,TGI,[8],8.42 µM
same,GI50,[9],4.82 µM
same,LC50 (concentration causing 50% net cell kill),[9],39.5 µM
same,TGI,[9],15.4 µM
C=C1CC[C@@H]2[C@](C)(COC(C)=O)[C@H](OC(C)=O)CC[C@@]2(C)[C@@H]1CC(Sc1ccccc1)C1=CCOC1=O (mixture of isomers),GI50,[1],2.1 µM
same,LC50,[1],7.89 µM
same,TGI,[1],4.08 µM
same,GI50,[2],0.71 µM
same,LC50,[2],> 100 µM
same,TGI,[2],3.64 µM
same,GI50,[3],2.77 µM
same,LC50,[3],> 100 µM
same,TGI,[3],11.5 µM
same,GI50,[4],0.87 µM
same,LC50,[4],6.98 µM
same,TGI,[4],2.59 µM
same,GI50,Malme-3M,1.74 µM
same,LC50,Malme-3M,7.59 µM
same,TGI,Malme-3M,3.63 µM
same,GI50,[5],1.41 µM
same,LC50 (concentration killing 50% of cells),[5],5.33 µM
same,TGI,[5],2.74 µM
same,GI50,786-0,1.9 µM
same,LC50,786-0,6.96 µM
same,TGI,786-0,3.64 µM
same,GI50,EKVX,2.43 µM
same,LC50,EKVX,> 100 µM
same,TGI,EKVX,10.4 µM
same,GI50,SN12C,2.1 µM
same,LC50 (concentration killing 50% of cells),SN12C,> 100 µM
same,TGI,SN12C,7.07 µM
same,GI50,[6],4.44 µM
same,TGI,[6],16.8 µM
same,CC50,[6],> 100 µM
same,GI50,M14,1.47 µM
same,LC50,M14,9.23 µM
same,TGI,M14,3.69 µM
same,GI50,ACHN,1.34 µM
same,LC50,ACHN,6.01 µM
same,TGI,ACHN,2.84 µM
same,GI50,NCI-H23,1.78 µM
same,LC50,NCI-H23,7.57 µM
same,TGI,NCI-H23,3.67 µM
same,GI50,[8],1.46 µM
same,LC50,[8],70 µM
same,TGI,[8],4.7 µM
same,GI50,[9],2.46 µM
same,LC50 (concentration causing 50% net cell kill),[9],8.89 µM
same,TGI,[9],4.67 µM
C=C1CC[C@@H]2[C@](C)(COC(C)=O)[C@H](OC(C)=O)CC[C@@]2(C)[C@@H]1CC(NCCCC)C1=CCOC1=O (mixture of isomers),growth inhibition (GI),RXF 393,inactive
C=C1CC[C@@H]2[C@](C)(CO)[C@H](O)CC[C@@]2(C)[C@@H]1C/C=C1/C(=O)OC[C@H]1O [ANDROGRAPHOLIDE],growth inhibition (GI),Hs-578T,inactive
same,growth inhibition (GI),SK-OV-3,inactive
same,growth inhibition (GI),HOP-92,inactive
same,growth inhibition (GI),SF-295,inactive
same,growth inhibition (GI),HCC 2998,inactive
same,growth inhibition (GI),IGROV-1,inactive
same,growth inhibition (GI),HL-60(TB),inactive
same,growth inhibition (GI),RXF 393,inactive
